Structures are written as SMILES. Where a name gives a salt, the structure may show the parent alone. Bounds are passed on as bounds.

As a reminder, the EC50 is the concentration needed to bring the measured effect to its halfway point. High values mean lower potency in that assay, low ones higher potency in that assay.

The target of one experiment is Sphingosine 1-phosphate receptor 1 (Homo sapiens, UniProt P21453). Kind of experiment: S1P1 receptor agonists, dose response, cell-based, agonist mode, 60K MLSMR set (AID 468).
Sequence of Sphingosine 1-phosphate receptor 1 (P21453 whole entry): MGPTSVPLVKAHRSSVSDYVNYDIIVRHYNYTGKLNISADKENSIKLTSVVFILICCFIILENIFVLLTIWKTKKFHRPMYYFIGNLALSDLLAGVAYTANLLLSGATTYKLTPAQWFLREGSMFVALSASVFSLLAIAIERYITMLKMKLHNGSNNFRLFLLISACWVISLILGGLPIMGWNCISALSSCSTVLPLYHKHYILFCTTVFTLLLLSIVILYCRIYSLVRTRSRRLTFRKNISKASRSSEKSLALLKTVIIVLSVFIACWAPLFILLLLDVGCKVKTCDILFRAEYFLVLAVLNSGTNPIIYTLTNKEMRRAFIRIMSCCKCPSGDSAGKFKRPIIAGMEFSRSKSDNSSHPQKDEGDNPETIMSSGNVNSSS
Settings: not given
In turn, `CC(=O)c1c(C)[nH]c(C(=O)OCCCCN2C(=O)c3ccccc3C2=O)c1C` [4-acetyl-3,5-dimethyl-1H-pyrrole-2-carboxylic acid 4-(1,3-dioxo-2-isoindolyl)butyl ester] registered an EC50 of 2.04 µM.

For the compound `Cc1ccc2nc(C(F)(F)F)c(C#N)c(N)c2c1` [4-amino-6-methyl-2-(trifluoromethyl)-3-quinolinecarbonitrile], the half-maximal effective concentration (EC50) was 7.58 µM. This EC50 is about 3.7-fold higher than that of the compound before. The same measure, in the same setting: the figure for `Nc1nonc1C(=O)NCCNCc1cc(Br)ccc1OCc1ccccc1F` [4-amino-N-[2-[[5-bromo-2-(2-fluorobenzyl)oxy-benzyl]amino]ethyl]furazan-3-carboxamide;hydrochloride] is 8.07 µM; for `Nc1nonc1C(=O)NCCNCc1cc(Br)ccc1OCc1ccc(F)cc1` [4-amino-N-[2-[[5-bromo-2-(4-fluorobenzyl)oxy-benzyl]amino]ethyl]furazan-3-carboxamide;hydrochloride] it is 6.9 µM. On the same count and under the same terms, the figure for `CCCCOc1ncnc2c1[nH]c1ccc(F)cc12` [4-butoxy-8-fluoranyl-5H-pyrimido[5,4-b]indole] is 2.73 µM; for `CCCCOc1ccc(S(=O)(=O)Nc2cccnc2)cc1` [4-butoxy-N-(3-pyridinyl)benzenesulfonamide] it is 9.47 µM.

Compound `Cc1ccc(S(=O)(=O)Nc2ccc3ncccc3c2)cc1` [4-methyl-N-(6-quinolinyl)benzenesulfonamide] gave a 50% effective concentration (EC50) of 7.8 µM. On the same count and under the same terms, the figure for `Cc1sc2ncnc(Sc3nnnn3-c3ccccc3)c2c1C` [5,6-dimethyl-4-(1-phenyltetrazol-5-yl)sulfanylthieno[2,3-d]pyrimidine] is over 95 µM; for `c1ccc(C(Cc2nc(-c3cccnc3)no2)c2ccccc2)cc1` [5-(2,2-diphenylethyl)-3-(3-pyridinyl)-1,2,4-oxadiazole] it is 2.82 µM; for `COc1ccc(-c2noc(-c3cccc(OC)c3OC)n2)cc1OC` [5-(2,3-dimethoxyphenyl)-3-(3,4-dimethoxyphenyl)-1,2,4-oxadiazole] it is 1.45 µM. Same read-out and setting: then `COc1ccc(-c2noc(-c3ccccc3F)n2)cc1` [5-(2-fluorophenyl)-3-(4-methoxyphenyl)-1,2,4-oxadiazole], with 7.38 µM; and `O=C(Nc1ccc(O)cc1)c1cc2n(n1)C(C(F)(F)F)CC(c1ccco1)N2` (centres undefined) [5-(2-furanyl)-N-(4-hydroxyphenyl)-7-(trifluoromethyl)-1,5,6,7-tetrahydropyrazolo[1,5-a]pyrimidine-2-carboxamide], with 3.63 µM; and `COc1ccccc1-c1nc(-c2cccc(C)c2)no1` [5-(2-methoxyphenyl)-3-(3-methylphenyl)-1,2,4-oxadiazole], with 1.34 µM.

The compound `COc1ccccc1-c1cc(C(=O)Nc2ccccc2SC)no1` [5-(2-methoxyphenyl)-N-(2-methylsulfanylphenyl)-1,2-oxazole-3-carboxamide] gave an EC50 of 6.26 µM.

`CCOc1ccc(-c2nc(-c3ccc(OC)cc3)no2)cc1OCC` [5-(3,4-Diethoxy-phenyl)-3-(4-methoxy-phenyl)-[1,2,4]oxadiazole] had a concentration giving a half-maximal response (EC50) of 0.568 µM. This EC50 is about 11-fold lower than that of the compound before. Still for that read-out and setting: the figure for `CCOc1ccc(-c2nc(-c3ccccc3)no2)cc1OCC` [5-(3,4-diethoxyphenyl)-3-phenyl-1,2,4-oxadiazole] is 0.147 µM; for `COc1ccc(-c2nc(-c3ccccc3OC)no2)cc1OC` [5-(3,4-dimethoxyphenyl)-3-(2-methoxyphenyl)-1,2,4-oxadiazole] it is 0.166 µM. Still for that read-out and setting: then `COc1ccc(-c2nc(-c3cccc(C)c3)no2)cc1OC` [5-(3,4-dimethoxyphenyl)-3-(3-methylphenyl)-1,2,4-oxadiazole], with 1.48 µM; and `COc1ccc(-c2nc(-c3ccncc3)no2)cc1OC` [5-(3,4-dimethoxyphenyl)-3-(4-pyridyl)-1,2,4-oxadiazole], with 1.85 µM. `COc1ccccc1OCc1nc(C#N)c(N2CC(C)CC(C)C2)o1` (centres undefined) [5-(3,5-dimethyl-1-piperidinyl)-2-[(2-methoxyphenoxy)methyl]-4-oxazolecarbonitrile] yielded an EC50 of 4.02 µM. On the same count and under the same terms, the figure for `Cc1cc(C)cc(-c2nc(-c3ccncc3)no2)c1` [5-(3,5-dimethylphenyl)-3-(4-pyridyl)-1,2,4-oxadiazole] is 2.05 µM; for `CCOc1ccc(C2CC(c3cccc(OC)c3OC)n3nnnc3N2)cc1Cl` (centres undefined) [5-(3-chloranyl-4-ethoxy-phenyl)-7-(2,3-dimethoxyphenyl)-1,5,6,7-tetrahydro-[1,2,3,4]tetrazolo[1,5-a]pyrimidine] it is over 95 µM; for `CC(C)N1C(=O)CCC1C(=O)N1CCC(Cc2ccccc2)CC1` (centres undefined) [5-(4-benzylpiperidine-1-carbonyl)-1-isopropyl-2-pyrrolidone] it is over 95 µM. Still for that read-out and setting: the figure for `COc1ccccc1-n1nnnc1S(=O)(=O)Cc1ccc(Cl)cc1` [5-(4-chlorobenzyl)sulfonyl-1-(2-methoxyphenyl)tetrazole] is 3.61 µM; for `CCc1ccc(-c2nc(-c3ccncc3)no2)cc1` [5-(4-ethylphenyl)-3-(4-pyridyl)-1,2,4-oxadiazole] it is 5.7 µM; for `O=C(Nc1ccccc1C(F)(F)F)c1cc(-c2ccc(O)cc2)on1` [5-(4-hydroxyphenyl)-N-[2-(trifluoromethyl)phenyl]isoxazole-3-carboxamide] it is 0.964 µM. Still for that read-out and setting: then `c1ccc(-c2ccc(-c3nc(-c4cccnc4)no3)cc2)cc1` [5-(4-phenylphenyl)-3-(3-pyridinyl)-1,2,4-oxadiazole], with 2.35 µM. Consider `O=C(Nc1nc2c(s1)CCCC2)c1cc2n(n1)C(C(F)(F)F)CC(C1CC1)N2` (centres undefined) [5-Cyclopropyl-7-trifluoromethyl-4,5,6,7-tetrahydro-pyrazolo[1,5-a]pyrimidine-2-carboxylic acid (4,5,6,7-tetrahydro-benzothiazol-2-yl)-amide], for which a half-maximal effect (EC50) was put at 0.996 µM. Regarding `CC(C)c1cc(C(F)(F)F)n2nc(C(=O)Nc3ccc4c(c3)OCO4)cc2n1` [5-Isopropyl-7-trifluoromethyl-pyrazolo[1,5-a]pyrimidine-2-carboxylic acid benzo[1,3]dioxol-5-ylamide], the concentration for a half-maximal effect (EC50) amounted to 2.6 µM. Still for that read-out and setting: then `Cc1cc(N2CCN(C/C=C/c3ccccc3)CC2)n2ncnc2n1` [5-Methyl-7-[4-((E)-3-phenyl-allyl)-piperazin-1-yl]-[1,2,4]triazolo[1,5-a]pyrimidine], with over 30 µM; and `CCC(NCCOc1ccc(Cl)cc1)=C1C(=O)N(C)C(=O)N(C)C1=O` [5-[1-[2-(4-chlorophenoxy)ethylamino]propylidene]-1,3-dimethyl-1,3-diazinane-2,4,6-trione], with 5.04 µM; and `Cc1ccc(OCc2nc(-c3ccccc3)no2)c(C)c1` [5-[(2,4-dimethylphenoxy)methyl]-3-phenyl-1,2,4-oxadiazole], with 2.66 µM. The same measure, in the same setting: the figure for `Clc1ccc(OCc2nc(-c3ccncc3)no2)c(Br)c1` [5-[(2-bromanyl-4-chloranyl-phenoxy)methyl]-3-pyridin-4-yl-1,2,4-oxadiazole] is 3.86 µM; for `CC(C)c1ccc(OCc2nc(-c3ccccn3)no2)c(Br)c1` [5-[(2-bromanyl-4-propan-2-yl-phenoxy)methyl]-3-pyridin-2-yl-1,2,4-oxadiazole] it is 4.45 µM.

For `COC(=O)c1cc(NCc2ccccc2F)ccc1N1CCOCC1` [5-[(2-fluorobenzyl)amino]-2-morpholino-benzoic acid methyl ester], it took 8.9 µM to reach a half-maximal effect (EC50). Compound `COc1ccccc1-n1nnnc1SCc1cc2c(cc1Br)OCO2` [5-[(6-bromanyl-1,3-benzodioxol-5-yl)methylsulfanyl]-1-(2-methoxyphenyl)-1,2,3,4-tetrazole] had a 50% effective concentration (EC50) of over 10 µM.

The experiment is the same for the next values; noted with them: inactive by the depositor's call.
Take `Cc1ccc(S(=O)(=O)n2nc(C)c(Br)c2C)c(C)c1C` [4-bromanyl-3,5-dimethyl-1-(2,3,4-trimethylphenyl)sulfonyl-pyrazole]: it took 88 µM to reach a half-maximal effect (EC50).

`CCCCOc1ccc(S(=O)(=O)Nc2cc(OC)ccc2OC)cc1` [4-butoxy-N-(2,5-dimethoxyphenyl)benzenesulfonamide] registered a 50% effective concentration (EC50) of 12.9 µM. The same measure, in the same setting: the figure for `CCN(CC)S(=O)(=O)c1cc(C(=O)Nc2ccncc2)ccc1Cl` [4-chloranyl-3-(diethylsulfamoyl)-N-pyridin-4-yl-benzamide] is 52.3 µM.

In turn, `Cc1cc(N2CCOCC2)nc(NCc2ccccc2)n1` [4-methyl-6-(4-morpholinyl)-N-(phenylmethyl)-2-pyrimidinamine] showed an EC50 of 13.2 µM. Compared with the last compound, the EC50 is about 4-fold lower. With `Cc1nc2ncnn2c(N2CCN(c3cccc(C(F)(F)F)c3)CC2)c1C` [5,6-Dimethyl-7-[4-(3-trifluoromethyl-phenyl)-piperazin-1-yl]-[1,2,4]triazolo[1,5-a]pyrimidine], a half-maximal response (EC50) required 14.1 µM.

As to `COc1ccccc1-c1cc(C(=O)Nc2cc(C)nn2-c2ccccc2)no1` [5-(2-methoxyphenyl)-N-(3-methyl-1-phenyl-1H-pyrazol-5-yl)isoxazole-3-carboxamide], the half-maximal effective concentration (EC50) came to 47 µM.

`COc1ccc(-c2nc(-c3cccc(C(F)(F)F)c3)no2)cc1OC` [5-(3,4-dimethoxyphenyl)-3-[3-(trifluoromethyl)phenyl]-1,2,4-oxadiazole] returned an EC50 of 22.3 µM. Still for that read-out and setting: the figure for `COc1cccc(-c2cc(C(=O)Nc3ccccc3SC)no2)c1` [5-(3-methoxyphenyl)-N-(2-methylsulfanylphenyl)-1,2-oxazole-3-carboxamide] is 18 µM; for `c1ccc(-c2ccc(-c3nc(-c4ccncc4)no3)cc2)cc1` [5-(4-phenylphenyl)-3-(4-pyridyl)-1,2,4-oxadiazole] it is 10.4 µM. Same read-out and setting: the figure for `Cc1cccc(-c2nc(C#N)c(NC3CCCCC3)o2)c1` [5-(cyclohexylamino)-2-(3-methylphenyl)-1,3-oxazole-4-carbonitrile] is 13.4 µM; for `FC(F)(F)c1ccc(N2CCN(c3cc(-c4ccccc4)nc4ncnn34)CC2)nc1` [5-Phenyl-7-[4-(5-trifluoromethyl-pyridin-2-yl)-piperazin-1-yl]-[1,2,4]triazolo[1,5-a]pyrimidine] it is 31.9 µM; for `CCOC(=O)c1oc2ccc(S(=O)(=O)n3nc(-c4ccc(OC)cc4)cc3N)cc2c1C` [5-[5-amino-3-(4-methoxyphenyl)pyrazol-1-yl]sulfonyl-3-methyl-coumarilic acid ethyl ester] it is 30.4 µM. Still for that read-out and setting: then `Oc1c(C(c2ccco2)N2CCN(C(c3ccccc3)c3ccccc3)CC2)sc2ncnn12` (centres undefined) [5-[(4-benzhydrylpiperazin-1-yl)-(furan-2-yl)methyl]-[1,3]thiazolo[3,2-b][1,2,4]triazol-6-ol], with 15.9 µM.

For the origin of these results see BindingDB's records for doi:10.7270/Q2251GJ9 (The Scripps Research Institute Molecular Screening Center, 2007).
